What is called EC50 is the concentration giving half of the maximal effect. A lower EC50 goes with a more potent agent. The pEC50 is the negative decadic logarithm of the EC50, by convention in mol/L. Lower therefore signals a high EC50.

pEC50: −log10 of the molar value. Read-outs that look alike come from different tables or passages of the source. Bounds are passed on as bounds.

This experiment deals with T1, α7 nicotinic ACh receptor ion channel expressed in mammalian HEK 293 cells (Rattus norvegicus, UniProt Q05941).
T1 construct: expressed in transfected cells
Briefly: Ca2+-sensitive fluorescence-based assay for α7 nicotinic acetylcholine receptor channel function (FLIPR), agonist activity. The experiment is classed as cell-based. The settings on record: for EC50: HEK 293 cells, Ca2+ flux. The method, then: II) A Ca^2+-Sensitive, Fluorescence-Based Assay α-7 for Nicotinic Acetylcholine Receptor Channel Function in Mammalian Cells (“FLIPR”).
Lead compounds are evaluated for agonist activity at the α7 nicotinic ACh receptor ion channel expressed in mammalian HEK 293 cells. Agonist potency and efficacy values are determined from kinetic fluorescence Ca^2+ influx measurements made using a 384 well FLIPR (Fluorescence Image Plate Reader). The utility of fluorescent indicators for measuring changes in intracellular divalent cation concentrations, particularly Ca^2+, for drug discovery endeavors is well documented (Rudiger, R., et al., Nature Reviews, 2003, 4:579-586; Gonzalez J. E., et al., Receptors and Channels, 2002, 8:283-295). In this assay, channel expressing HEK cell lines seeded in 384 well assay plates are loaded with a membrane permeant fluorescent Ca^2+ indicator dye, whose 510 nm green emission signal increases in response to elevation of intracellular Ca^2+ concentration. The basal fluorescence from the cells is monitored in real time, followed by the acute addition of test compounds. If the compound is an agonist at any of the non-selective cation channels, the latter open and allow the movement of extracellular Ca^2+ ions into the cell cytoplasm, where they bind to the Ca^2+ indicator dye, and produce an increase in fluorescence output signal, which is detected by a cooled CCD imaging camera.
Reagents: The acetomethoxy (AM) ester of the Ca^2+ indicator dye Fluo-4 was obtained from InVitrogen, (Carlsbad, Calif.). Acetylcholine and all buffer constituents were purchased from Sigma Chemical Company, St. Louis, Mo. G418 and Minimal Essential Medium were purchased from InVitrogen Life Technologies, Carlsbad, Calif. Fetal bovine serum was purchased from (InVitrogen, Carlsbad, Calif.).
HEK-293 cells were grown in Minimal Essential Medium containing 10% (v/v) fetal bovine serum at 37° C. in a 5% CO2 incubator. HEK-293 cells stably expressing the ion channels were grown in the same medium with the addition of 500 μg/ml G418.
HEK-293 cells expressing the ion channels of interest were plated in 384 well, black-walled, clear-bottomed, poly-D-lysine coated plates at a density of ˜20,000 cells/well in 20 μl of Minimal Essential Medium containing 10% (v/v) fetal bovine serum and incubated for 2 days at 29° C. in a 5% CO2 incubator. Prior to assay, cells were loaded with the Fluo-4 AM ester. Cell loading was accomplished by removing the culture medium and replacing it with 30 μl/well of the AM ester of the dye (5 μM) mixed with Hanks Balanced Salt Solution (#14175-095) containing 20 mM HEPES, 2.5 mM probenecid, 0.5 mM CaCl2, 1 mM MgCl2 and 10 μM atropine. Dye loading was allowed to proceed for 90 minutes at room temperature at which time the dye loading solution was removed and replaced with 40 μl/well of Hanks buffer. Cells loaded with dye were loaded onto a FLIPR384 (Molecular Devices, Sunnyvale, Calif.). Fluo-4 dye was excited using the 488 nm line of an argon laser. Emission was filtered using a 540+/−30 nm bandpass filter. For evaluation of the effects of test compounds using the Ca^2+ flux assay, compounds to be tested were provided in assay ready plates. For nicotinic receptor ion channel expressing cells, the assay was initiated by the addition of 20 μl/well of Hanks buffer containing test compounds. For all assays, data were collected at 1 Hz for 10 seconds (baseline), at which time the compound containing stimulus buffers are added, and further measurements collected at 0.33 Hz for 3 min.
The statistical robustness of the nicotinic receptor Ca^2+ flux assays is determined from blanks and totals wells. The totals wells define maximal channel activation for each compound test plate (Maximum efficacious dose of acetylcholine), and the blanks wells which contain matched DMSO only, define zero channel activation. […]

Where [1] appears, read: FLIPR α7 (EC50, nM), agonist potency.
Setting [2] is: FLIPR α7 activity rating (EC50, nM), class rating of EC50.

T1 sequence (Q05941 23-502): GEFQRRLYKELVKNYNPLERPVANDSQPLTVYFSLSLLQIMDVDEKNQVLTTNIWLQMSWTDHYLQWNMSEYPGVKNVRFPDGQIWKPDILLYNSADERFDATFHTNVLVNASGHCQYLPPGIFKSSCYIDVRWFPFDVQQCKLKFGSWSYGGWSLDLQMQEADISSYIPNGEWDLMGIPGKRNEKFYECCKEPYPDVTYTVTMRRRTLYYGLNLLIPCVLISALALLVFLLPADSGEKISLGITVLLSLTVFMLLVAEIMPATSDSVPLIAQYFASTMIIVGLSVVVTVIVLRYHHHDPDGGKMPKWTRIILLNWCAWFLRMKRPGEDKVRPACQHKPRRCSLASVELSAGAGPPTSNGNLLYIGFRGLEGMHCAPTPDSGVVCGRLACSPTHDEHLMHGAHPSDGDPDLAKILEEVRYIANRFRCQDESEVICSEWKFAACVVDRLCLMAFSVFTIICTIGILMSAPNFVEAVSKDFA

For the molecule `COc1ccc2c(c1)nc1n2C[C@@]2(CN3CCC2CC3)O1` (single isomer, unassigned) [Example 6b], the EC50 reads like this: under setting [1], 10.3 nM; under setting [2], below 100 nM.
Turning to `Cc1cc2nc3n(c2cc1C)C[C@@]1(CN2CCC1CC2)O3` (single isomer, unassigned) [Example 5a], the EC50 is 65.3 nM under setting [1] and below 100 nM under setting [2].
For `Cc1ccc2c(c1)nc1n2C[C@@]2(CN3CCC2CC3)O1` (single isomer, unassigned) [Example 7b], the EC50 reads like this: under setting [1], 5.1 nM; under setting [2], below 100 nM.
Regarding `Brc1nc2n(c1Br)C[C@@]1(CN3CCC1CC3)O2` (single isomer, unassigned) [Example 1b], the concentration for a half-maximal effect (EC50) runs as follows: under setting [1], 19.6 nM; under setting [2], below 100 nM.
`FC(F)(F)c1ccc2nc3n(c2c1)C[C@]1(CN2CCC1CC2)O3` (single isomer, unassigned) [Example 8c] showed a pEC50 below 4.00. Under setting [2], this molecule gave an EC50 above 1e+06 nM.
Turning to `Brc1nc2n(c1Br)C[C@]1(CN3CCC1CC3)O2` (single isomer, unassigned) [Example 1a], the EC50 runs as follows: under setting [1], 5690 nM; under setting [2], 1000 to 100000 nM.
Taken in the same sequence, the figures for `Clc1cccc2c1nc1n2C[C@]2(CN3CCC2CC3)O1` (single isomer, unassigned) [Example 9a] were 12100 nM and 1000 to 100000 nM.
Taken in the same sequence, the figures for `Clc1nc2n(n1)CC1(CN3CCC1CC3)O2` (racemic) [Example 16, 2-Chloro-6H-1′-azaspiro[oxazolo[3,2-b][1,2,4]triazole-5,3′-bicyclo[2.2.2]octane]] were 174 nM and 100 to 1000 nM.

For the origin of these results see patent US10174052B2, “Quinuclidine compounds as α-7 nicotinic acetylcholine receptor ligands” (BRISTOL-MYERS SQUIBB COMPANY, priority 2014, dated 2019).
